The source made the active and inactive calls. The calls are words filed in the database; no cut-off is given here.
Tests used:
Insulin receptor = Insulin receptor (Homo sapiens, UniProt P06213); assay: Inhibition of IR by ELISA
[1] = biological target: Insulin-like growth factor 1 receptor (Homo sapiens, UniProt P08069); assay: Inhibition of IGF1R by ELISA
MCF7 = assay: Antiproliferative activity against human MCF7 cells after 72 hrs by SRB assay; type: functional, cell-based; details: MCF7, 72 h
[2] = Dissociation constant, pKa of the compound; type: physicochemical
[3] = biological target: Proto-oncogene tyrosine-protein kinase Src (Homo sapiens) (UniProt P12931); assay: Inhibition of c-Src at 10 uM
Proto-oncogene tyrosine-protein kinase Src (Homo sapiens), sequence (P12931 2-536 limits assumed): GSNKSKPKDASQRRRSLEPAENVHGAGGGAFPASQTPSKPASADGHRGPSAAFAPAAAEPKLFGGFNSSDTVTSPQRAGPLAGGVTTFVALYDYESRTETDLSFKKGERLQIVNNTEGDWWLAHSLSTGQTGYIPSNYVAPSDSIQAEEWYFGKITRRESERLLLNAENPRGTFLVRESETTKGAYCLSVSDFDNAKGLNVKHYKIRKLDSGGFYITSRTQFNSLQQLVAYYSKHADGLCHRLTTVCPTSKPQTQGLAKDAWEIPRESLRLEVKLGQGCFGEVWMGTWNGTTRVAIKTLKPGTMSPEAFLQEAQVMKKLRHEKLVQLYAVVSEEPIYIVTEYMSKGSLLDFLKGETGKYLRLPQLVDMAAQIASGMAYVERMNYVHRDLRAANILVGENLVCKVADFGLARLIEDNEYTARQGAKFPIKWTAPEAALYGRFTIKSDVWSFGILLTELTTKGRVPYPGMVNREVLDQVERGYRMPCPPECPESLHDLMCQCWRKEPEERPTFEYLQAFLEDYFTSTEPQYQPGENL

Insulin receptor, sequence (P06213 28-758 limits assumed): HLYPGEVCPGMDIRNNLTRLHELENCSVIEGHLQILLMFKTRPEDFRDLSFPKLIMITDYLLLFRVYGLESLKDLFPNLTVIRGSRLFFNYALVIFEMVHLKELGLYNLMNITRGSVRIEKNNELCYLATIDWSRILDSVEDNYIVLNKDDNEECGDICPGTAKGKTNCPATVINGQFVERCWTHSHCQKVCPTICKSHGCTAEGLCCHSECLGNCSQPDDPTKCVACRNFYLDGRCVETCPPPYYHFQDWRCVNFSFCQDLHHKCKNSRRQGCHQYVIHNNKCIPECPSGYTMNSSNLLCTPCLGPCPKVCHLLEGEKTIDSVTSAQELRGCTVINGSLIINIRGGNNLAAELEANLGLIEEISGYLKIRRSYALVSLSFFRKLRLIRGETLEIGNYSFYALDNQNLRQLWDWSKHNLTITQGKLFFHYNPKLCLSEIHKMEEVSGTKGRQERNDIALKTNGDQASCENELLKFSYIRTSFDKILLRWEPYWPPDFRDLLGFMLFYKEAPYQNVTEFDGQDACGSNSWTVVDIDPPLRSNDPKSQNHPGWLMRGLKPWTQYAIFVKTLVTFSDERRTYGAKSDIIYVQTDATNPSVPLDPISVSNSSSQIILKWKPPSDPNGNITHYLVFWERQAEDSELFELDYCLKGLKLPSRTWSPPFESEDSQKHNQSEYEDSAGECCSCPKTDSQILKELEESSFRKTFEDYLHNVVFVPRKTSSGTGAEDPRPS
Insulin receptor, sequence (P06213 763-1382 limits assumed): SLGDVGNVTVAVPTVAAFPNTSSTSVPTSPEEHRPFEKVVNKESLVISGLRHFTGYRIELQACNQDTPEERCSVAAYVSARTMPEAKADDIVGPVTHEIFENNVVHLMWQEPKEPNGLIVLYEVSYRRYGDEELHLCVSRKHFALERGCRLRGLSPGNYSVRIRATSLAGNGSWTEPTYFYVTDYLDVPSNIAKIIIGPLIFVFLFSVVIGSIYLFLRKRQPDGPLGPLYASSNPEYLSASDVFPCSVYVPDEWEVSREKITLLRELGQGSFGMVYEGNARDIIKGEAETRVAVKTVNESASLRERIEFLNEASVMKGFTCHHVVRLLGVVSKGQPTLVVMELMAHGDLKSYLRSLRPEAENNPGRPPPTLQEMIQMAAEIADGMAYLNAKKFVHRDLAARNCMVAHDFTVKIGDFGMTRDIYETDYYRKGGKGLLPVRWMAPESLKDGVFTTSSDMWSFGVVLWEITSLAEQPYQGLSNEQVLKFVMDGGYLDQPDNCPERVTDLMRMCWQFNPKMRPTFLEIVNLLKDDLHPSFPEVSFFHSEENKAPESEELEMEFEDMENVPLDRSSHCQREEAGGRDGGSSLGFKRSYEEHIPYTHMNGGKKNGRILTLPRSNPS
Insulin-like growth factor 1 receptor, sequence (P08069 31-736 limits assumed): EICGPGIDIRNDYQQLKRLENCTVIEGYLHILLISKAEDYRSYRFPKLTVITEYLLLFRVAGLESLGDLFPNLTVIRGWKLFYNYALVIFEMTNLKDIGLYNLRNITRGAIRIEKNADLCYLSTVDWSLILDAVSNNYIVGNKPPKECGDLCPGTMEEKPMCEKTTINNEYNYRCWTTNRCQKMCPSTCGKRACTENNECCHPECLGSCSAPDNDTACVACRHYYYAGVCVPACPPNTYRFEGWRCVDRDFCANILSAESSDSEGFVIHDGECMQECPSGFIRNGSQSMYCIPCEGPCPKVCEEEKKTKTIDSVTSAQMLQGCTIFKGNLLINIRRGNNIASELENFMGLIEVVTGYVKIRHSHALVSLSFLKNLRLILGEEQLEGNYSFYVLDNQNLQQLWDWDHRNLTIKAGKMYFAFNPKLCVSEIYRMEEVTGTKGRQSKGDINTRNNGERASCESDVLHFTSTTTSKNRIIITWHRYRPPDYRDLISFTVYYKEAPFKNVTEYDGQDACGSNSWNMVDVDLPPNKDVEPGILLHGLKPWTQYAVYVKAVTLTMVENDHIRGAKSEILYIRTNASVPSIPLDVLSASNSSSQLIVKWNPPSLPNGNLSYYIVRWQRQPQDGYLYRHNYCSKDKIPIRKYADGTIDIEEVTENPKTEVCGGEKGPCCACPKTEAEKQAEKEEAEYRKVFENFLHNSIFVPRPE
Insulin-like growth factor 1 receptor, sequence (P08069 741-1367 limits assumed): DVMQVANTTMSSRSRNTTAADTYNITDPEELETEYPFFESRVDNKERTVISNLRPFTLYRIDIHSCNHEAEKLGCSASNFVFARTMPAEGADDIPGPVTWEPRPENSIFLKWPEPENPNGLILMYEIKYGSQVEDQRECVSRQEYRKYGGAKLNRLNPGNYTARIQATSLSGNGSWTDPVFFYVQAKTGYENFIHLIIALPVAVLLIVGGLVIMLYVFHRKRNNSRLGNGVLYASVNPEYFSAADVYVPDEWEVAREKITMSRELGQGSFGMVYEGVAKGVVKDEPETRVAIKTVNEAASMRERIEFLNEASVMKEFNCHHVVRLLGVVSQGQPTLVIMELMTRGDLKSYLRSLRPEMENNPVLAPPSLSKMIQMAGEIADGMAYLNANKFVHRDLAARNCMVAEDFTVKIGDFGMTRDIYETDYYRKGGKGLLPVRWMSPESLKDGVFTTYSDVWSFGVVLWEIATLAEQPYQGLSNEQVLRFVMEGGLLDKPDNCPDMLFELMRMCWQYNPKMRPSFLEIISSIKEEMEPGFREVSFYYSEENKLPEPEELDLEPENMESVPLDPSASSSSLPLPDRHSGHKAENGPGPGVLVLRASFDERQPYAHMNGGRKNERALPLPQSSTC

Row | SMILES | IC50 (Insulin receptor) [µM] | IC50 [1] [µM] | IC50 (MCF7) [µM] | pKa [2] | Activity [3]
1 | COc1cc(/C=C2/SC(=O)NC2=O)cc(I)c1O | > 100 | 6.3 | 50.8 | – | –
2 | O=C1NC(=S)S/C1=C\c1ccc(-c2ccccc2Cl)o1 | – | – | > 100 | – | –
3 | CCOc1cc(/C=C2/SC(=O)NC2=O)cc(Cl)c1OCC | – | 49.8 | – | – | –
4 | Cc1ccc(N2CCC(N3CCN(C(=O)N4CCOCC4)CC3)CC2)c2[nH]c(-c3c(N[C@@H](CO)Cc4ccccc4Br)cc[nH]c3=O)nc12 | – | 0.009 | – | – | –
5 | O=C1NC(=O)/C(=C\c2ccc(-c3ccc(Cl)c(Cl)c3)o2)S1 | – | – | 14.8 | 7.9 | –
6 | O=C1NC(=O)/C(=C/c2ccc(Cl)cc2Cl)S1 | > 100 | 15 | > 100 | – | –
7 | CCOc1cc(/C=C2/SC(=O)NC2=O)cc(Br)c1O | > 100 | 5.2 | 56.3 | – | –
8 | O=C1NC(=O)/C(=C\c2ccc(N3CCCC3)c(F)c2)S1 | – | > 100 | – | – | –
9 | CCOc1cccc(/C=C2/SC(=O)NC2=O)c1O | > 100 | 8.6 | > 100 | – | –
10 | COc1cc(/C=C2\SC(=O)NC2=O)ccc1OCc1ccc(Cl)cc1Cl | – | > 100 | – | – | –
11 | CCCCOc1ccc(/C=C2\SC(=O)NC2=O)cc1 | – | > 100 | – | – | –
12 | O=C1NC(=O)/C(=C\c2ccc(-c3ccc(F)cc3)o2)S1 | > 100 | 0.4 | 36.9 | – | –
13 | O=C1NC(=O)/C(=C\c2ccccc2OCc2ccc(Cl)cc2Cl)S1 | – | > 100 | – | – | –
14 | CCOc1cc(Br)cc(/C=C2\SC(=O)NC2=O)c1O | > 100 | – | – | – | –
15 | O=C1NC(=O)/C(=C/c2ccccc2F)S1 | > 100 | 6.6 | > 100 | – | –
16 | O=C1NC(=O)/C(=C\c2ccc(-c3cccc(Cl)c3Cl)o2)S1 | > 100 | 3.4 | 21.5 | – | –
17 | O=C1NC(=O)/C(=C\c2ccc(-c3ccc(F)c(Cl)c3)o2)S1 | > 100 | 0.28 | 16.9 | – | –
18 | O=C1NC(=O)/C(=C/c2ccc(-c3ccc(O)c(C(=O)O)c3)o2)S1 | – | – | 81.3 | – | –
19 | COc1cc(Br)cc(/C=C2\SC(=O)NC2=O)c1O | > 100 | – | – | – | Active
20 | O=C1NC(=O)/C(=C\c2ccc(OCc3ccccc3Cl)cc2)S1 | – | > 100 | – | – | –
21 | COc1cc(/C=C2/SC(=O)NC2=O)cc(OC)c1O | > 100 | 5.3 | – | – | –

Row | SMILES | IC50 (Insulin receptor) [µM] | IC50 [1] [µM] | IC50 (MCF7) [µM] | pKa [2] | Activity [3]
22 | O=C1NC(=O)/C(=C\c2ccc(Cl)c(Cl)c2)S1 | > 100 | 8.8 | 50.8 | – | –
23 | CCOc1cc2c(cc1/C=C1\SC(=O)NC1=O)OCO2 | > 100 | 10 | > 100 | – | –
24 | CCOc1ccc(/C=C2/SC(=O)NC2=O)cc1OC | > 100 | – | 87.3 | – | –
25 | CCOc1ccc(/C=C2\SC(=O)NC2=O)cc1OCC(C)C | – | 63.9 | – | – | –
26 | O=C1NC(=O)/C(=C\c2ccc(-c3ccc(Cl)cc3Cl)o2)S1 | – | – | 17.3 | – | –
27 | CCC(C)COc1ccccc1/C=C1/SC(=O)NC1=O (stereo not given) | > 100 | 9 | > 100 | – | –
28 | Cc1ccc(-c2ccc(/C=C3/SC(=O)NC3=O)o2)c(Br)c1 | > 100 | 6.3 | – | – | –
29 | O=C1NC(=O)/C(=C\c2cccc([N+](=O)[O-])c2)S1 | > 100 | 4.9 | 55.8 | – | –
30 | CCOc1cc(/C=C2\SC(=O)NC2=O)c(Br)cc1OC | – | > 100 | – | – | –
31 | O=C1NC(=O)/C(=C\c2cc3c(cc2Br)OCO3)S1 | > 100 | 3.3 | 24.8 | – | –
32 | C=CCc1cc(/C=C2\SC(=O)NC2=O)cc(OC)c1OC | – | > 100 | – | – | –
33 | O=C1NC(=O)/C(=C\c2ccc(-c3ccc(Br)cc3)o2)S1 | > 100 | 6.7 | 47.3 | – | –
34 | O=C1NC(=O)/C(=C\c2ccc(-c3cccc(Br)c3)o2)S1 | 28 | 0.057 | 25.3 | – | –
35 | CCc1ccc(/C=C2\SC(=O)NC2=O)cc1 | > 100 | 11.1 | – | – | –
36 | COc1cc(/C=C2/SC(=O)NC2=O)ccc1OCc1ccccc1 | – | > 100 | – | – | –
37 | COc1c(Br)cc(/C=C2\SC(=O)NC2=O)cc1Br | 65.3 | 6.4 | – | – | –
38 | O=C1NC(=S)S/C1=C\c1ccc(-c2ccc(C(=O)O)cc2)o1 | – | – | 41.9 | – | –
39 | CCC(=O)c1cccc(Nc2ccc3c(c2)/C(=C/Nc2ccc(N4CCN(C)CC4)cc2)C(=O)NC3=O)c1 | – | 0.319 | – | – | –
40 | CCCOc1c(Br)cc(/C=C2\SC(=O)NC2=O)cc1OCC | – | > 100 | – | – | –
41 | O=C1NC(=O)/C(=C/c2cccc(OCc3ccc(Cl)cc3Cl)c2)S1 | > 100 | 1.6 | 25.2 | – | –

Source: ChEMBL document CHEMBL1157631, “Discovery and SAR of thiazolidine-2,4-dione analogues as insulin-like growth factor-1 receptor (IGF-1R) inhibitors via hierarchical virtual screening” (J Med Chem, 2010)
